# Reference: PubChem BioAssay (NCI)
#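 Method: 48-hour compound exposure of cells in 96-well plates, five concentrations, linear interpolation of endpoints. GI50 is the concentration that inhibits growth by half. TGI marks complete inhibition of growth.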
# Columns and labels:
# Assay in all cases: DTP human tumour cell line panel, 48 h
# SF-539 CNS = test system: SF-539 CNS
# SW-620 colon = test system: SW-620 colon
# MCF7 breast = test system: MCF7 breast
# HOP-92 NSCLC = test system: HOP-92 NSCLC
# UO-31 renal = test system: UO-31 renal
# OVCAR-3 ovarian = test system: OVCAR-3 ovarian
# HT29 colon = test system: HT29 colon
# OVCAR-5 ovarian = test system: OVCAR-5 ovarian
# HCC-2998 colon = test system: HCC-2998 colon
# SK-MEL-5 melanoma = test system: SK-MEL-5 melanoma
# KM12 colon = test system: KM12 colon
# DU-145 prostate = test system: DU-145 prostate
# COLO 205 colon = test system: COLO 205 colon
# BT-549 breast = test system: BT-549 breast
# NCI/ADR-RES ovarian = test system: NCI/ADR-RES ovarian
# LOX IMVI melanoma = test system: LOX IMVI melanoma
# HOP-62 NSCLC = test system: HOP-62 NSCLC
# OVCAR-8 ovarian = test system: OVCAR-8 ovarian
# PC-3 prostate = test system: PC-3 prostate
# T-47D breast = test system: T-47D breast
# UACC-62 melanoma = test system: UACC-62 melanoma
# HS 578T breast = test system: HS 578T breast
# A498 renal = test system: A498 renal
# SR leukemia = test system: SR leukemia
# SNB-75 CNS = test system: SNB-75 CNS
# 786-0 renal = test system: 786-0 renal
# MDA-MB-435 = test system: MDA-MB-435
# NCI-H522 lung = test system: NCI-H522 lung
structure (smiles),measurement,setting,value
O=c1[nH]cnc2c1ccn2C1OC(CO)C(O)C1O (stereo unspecified),GI50,SF-539 CNS,10.7 µM
same,TGI,SF-539 CNS,> 100 µM
same,GI50,SW-620 colon,3.17 µM
same,TGI,SW-620 colon,> 100 µM
same,GI50,MCF7 breast,2.41 µM
same,TGI,MCF7 breast,> 100 µM
same,GI50,HOP-92 NSCLC,2 µM
same,TGI,HOP-92 NSCLC,15.5 µM
same,GI50,UO-31 renal,2.11 µM
same,TGI,UO-31 renal,8.85 µM
same,GI50,OVCAR-3 ovarian,5.68 µM
same,TGI,OVCAR-3 ovarian,> 100 µM
same,GI50,HT29 colon,5.73 µM
same,TGI,HT29 colon,> 100 µM
same,GI50,OVCAR-5 ovarian,12 µM
same,TGI,OVCAR-5 ovarian,> 100 µM
same,GI50,HCC-2998 colon,7.66 µM
same,TGI,HCC-2998 colon,> 100 µM
same,GI50,SK-MEL-5 melanoma,6.1 µM
same,TGI,SK-MEL-5 melanoma,19.2 µM
same,GI50,KM12 colon,8.89 µM
same,TGI,KM12 colon,> 100 µM
same,GI50,DU-145 prostate,2.34 µM
same,TGI,DU-145 prostate,23.8 µM
same,GI50,COLO 205 colon,3.41 µM
same,TGI,COLO 205 colon,26.5 µM
same,GI50,BT-549 breast,5.86 µM
same,TGI,BT-549 breast,> 100 µM
same,GI50,NCI/ADR-RES ovarian,3.2 µM
same,TGI,NCI/ADR-RES ovarian,> 100 µM
same,GI50,LOX IMVI melanoma,2.18 µM
same,TGI,LOX IMVI melanoma,16 µM
same,GI50,HOP-62 NSCLC,6.7 µM
same,TGI,HOP-62 NSCLC,> 100 µM
same,GI50,OVCAR-8 ovarian,2.3 µM
same,TGI,OVCAR-8 ovarian,90.4 µM
same,GI50,PC-3 prostate,3.35 µM
same,TGI,PC-3 prostate,> 100 µM
same,GI50,T-47D breast,2.49 µM
same,TGI,T-47D breast,80 µM
same,GI50,UACC-62 melanoma,10.1 µM
same,TGI,UACC-62 melanoma,27.8 µM
same,GI50,HS 578T breast,14 µM
same,TGI,HS 578T breast,> 100 µM
same,GI50,A498 renal,4.72 µM
same,TGI,A498 renal,70.5 µM
same,GI50,SR leukemia,5.38 µM
same,TGI,SR leukemia,49.3 µM
same,GI50,SNB-75 CNS,3.8 µM
same,TGI,SNB-75 CNS,> 100 µM
same,GI50,786-0 renal,3.56 µM
same,TGI,786-0 renal,> 100 µM
same,GI50,MDA-MB-435,9.35 µM
same,TGI,MDA-MB-435,> 100 µM
same,GI50,NCI-H522 lung,7.32 µM
same,TGI,NCI-H522 lung,34.7 µM
